EC50 data for 15 molecules are collected here from US20230127839A1, “COMPOUNDS AND COMPOSITIONS FOR TREATING CONDITIONS ASSOCIATED WITH STING ACTIVITY” (IFM Due, Inc., priority 2019, published 2023).

The target of the assay is T1, hSTING (Homo sapiens, UniProt Q86WV6, G230A/H232R/R293Q/R71H).
T1 construct: host or cells: THP1-Dual KO-IFNAR2 cells
In words: STING reporter assay (luciferase) in THP1-Dual KO-IFNAR2 cells stimulated with 2'3'cGAMP. The format is cell-based. The note with it: 2'3'cGAMP 15 μM, 24 h, luciferase reporter activity. The protocol: STING pathway activation by the compounds described herein is measured using THP1-Dual™ cells (KO-IFNAR2).
THP1-Dual™ KO-IFNAR2 Cells (obtained from invivogen) are maintained in RPMI, 10% FCS, 5 ml P/S, 2 mM L-glut, 10 mM Hepes, and 1 mM sodium pyruvate.
Compounds are spotted in empty 384 well tissue culture plates (Greiner 781182) by Echo for a final concentration of 0.0017-100 μM. Cells are plated into the TC plates at 40 μL per well, 2×10E6 cells/mL. For activation with STING ligand, 2′3′cGAMP (MW 718.38, obtained from Invivogen), is prepared in Optimem media.
The following solutions are prepared for each 1×384 plate: • Solution A: 2 mL Optimem with one of the following stimuli: • 60 uL of 10 mM 2′3′cGAMP->150 μM stock • Solution B: 2 mL Optimem with 60 μL Lipofectamine 2000->Incubate 5 min at RT
2 mL of solution A and 2 ml Solution B is mixed and incubated for 20 min at room temperature (RT). 20 uL of transfection solution (A+B) is added on top of the plated cells, with a final 2′3′cGAMP concentration of 15 μM. The plates are then centrifuged immediately at 340 g for 1 minute, after which they are incubated at 37° C., 5% CO2, >98% humidity for 24 h. Luciferase reporter activity is then measured. EC50 values are calculated by using standard methods known in the art.
Luciferase reporter assay: 10 μL of supernatant from the assay is transferred to white 384-plate with flat bottom and squared wells. One pouch of QUANTI-Luc™ Plus us dissolved in 25 mL of water. 100 μL of QLC Stabilizer per 25 mL of QUANTI-Luc™ Plus solution is added. 50 μL of QUANTI-Luc™ Plus/QLC solution per well is then added. Luminescence is measured on a Platereader (e.g., Spectramax I3X (Molecular Devices GF3637001)).
Luciferase reporter activity is then measured. EC50 values are calculated by using standard methods known in the art.
For orientation: Reporter assays use an easily measured gene product as a stand-in for the process of interest.

T1 sequence (Q86WV6 whole entry R71H/G230A/H232R/R293Q): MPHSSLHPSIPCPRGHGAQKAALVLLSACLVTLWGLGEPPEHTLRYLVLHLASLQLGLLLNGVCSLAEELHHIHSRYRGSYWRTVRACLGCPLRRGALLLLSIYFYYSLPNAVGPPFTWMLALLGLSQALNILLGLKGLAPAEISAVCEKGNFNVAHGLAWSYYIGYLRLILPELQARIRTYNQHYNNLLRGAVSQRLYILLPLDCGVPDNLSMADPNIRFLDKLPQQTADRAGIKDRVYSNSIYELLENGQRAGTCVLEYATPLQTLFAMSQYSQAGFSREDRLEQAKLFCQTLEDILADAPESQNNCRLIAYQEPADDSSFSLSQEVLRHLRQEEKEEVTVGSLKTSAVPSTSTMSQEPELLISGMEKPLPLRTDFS

As a reminder, the EC50 is the concentration that produces a half-maximal response. For `O=C(Nc1cnn(C2CCC(F)(F)CC2)c1)Nc1c[nH]c2ccc(Cl)cc12` [Compound 209, 1-(5-chloro-1H-indol-3-yl)-3-(1-(4,4-difluorocyclohexyl)-1H-pyrazol-4-yl)urea], the EC50 lay within 0.2 to 1 µM.
Turning to `O=C(Nc1cnc(C2CCN(CC(F)(F)F)CC2)c(Cl)c1)Nc1c[nH]c2ccc(F)cc12` [Compound 268, 1-(5-chloro-6-(1-(2,2,2-trifluoroethyl)piperidin-4-yl)pyridin-3-yl)-3-(5-fluoro-1H-indol-3-yl)urea], the EC50 was in the range of 0.04 to 0.2 µM.
The same measure for `COCCC1CCN(c2ncc(NC(=O)Nc3c[nH]c4cc(F)c(F)cc34)cc2Cl)CC1` [Compound 177, 1-(5-chloro-6-(4-(2-methoxyethyl)piperidin-1-yl)pyridin-3-yl)-3-(5,6-difluoro-1H-indol-3-yl)urea]: 0.04 to 0.2 µM; for `O=C(Nc1cnn(CC2CCC(F)(F)CC2)c1)Nc1c[nH]c2ccc(Cl)cc12` [Compound 222, 1-(5-chloro-1H-indol-3-yl)-3-(1-((4,4-difluorocyclohexyl)methyl)-1H-pyrazo1-4-yl)urea]: 0.2 to 1 µM.
The value for `O=C(Nc1ccc(C2CCC(F)(F)CC2)nc1)Nc1c[nH]c2ccc(Cl)cc12` [Compound 130, 1-(5-chloro-1H-indol-3-yl)-3-(6-(4,4-difluorocyclohexyl)pyridin-3-yl)urea] was 0.04 to 0.2 µM.
The value for `O=C(Nc1cc(Cl)c(C2CCC(F)(F)CC2)cn1)Nc1c[nH]c2ccc(F)cc12` [Compound 287, 1-(4-chloro-5-(4,4-difluorocyclohexyl)pyridin-2-yl)-3-(5-fluoro-1H-indol-3-yl)urea] was 0.04 to 0.2 µM; that for `COCCO[C@@H]1CCN(c2ncc(NC(=O)Nc3c[nH]c4cc(F)c(F)cc34)cc2C)C1` [Compound 152, (R)-1-(5,6-difluoro-1H-indol-3-yl)-3-(6-(3-(2-methoxyethoxy)pyrrolidin-1-yl)-5-methylpyridin-3-yl)urea] was 1 to 5 µM; that for `N#Cc1cc(NC(=O)Nc2c[nH]c3cc(F)c(F)cc23)cnc1N1CCC(F)(F)CC1` [Compound 163, 1-(5-cyano-6-(4,4-difluoropiperidin-1-yl)pyridin-3-yl)-3-(5,6-difluoro-1H-indol-3-yl)urea] was 0.04 to 0.2 µM.
`O=C(Nc1cnc(N2CCC3(CC2)CC3)c(Cl)c1)Nc1c[nH]c2ccc(F)cc12` [Compound 239, 1-(5-chloro-6-(6-azaspiro[2.5]octan-6-yl)pyridin-3-yl)-3-(5-fluoro-1H-indol-3-yl)urea]: the EC50 lay within 0.04 to 0.2 µM.
With `C#CCC1CCN(c2ccc(NC(=O)Nc3c[nH]c4ccccc34)cn2)CC1` [Compound 172, 1-(1H-indol-3-yl)-3-(6-(4-(prop-2-yn-1-yl)piperidin-1-yl)pyridin-3-yl)urea], the EC50 lay in the range of 0.2 to 1 µM.
In turn, `COc1cc(NC(=O)Nc2c[nH]c3cc(F)c(F)cc23)cnc1N1CC(F)(F)C1` [Compound 168, 1-(5,6-difluoro-1H-indol-3-yl)-3-(6-(3,3-difluoroazetidin-1-yl)-5-methoxypyridin-3-yl)urea] registered an EC50 of 0.2 to 1 µM.
The value for `O=C(Nc1cnc(C2CCC(F)(F)CC2)c(Cl)c1)Nc1c[nH]c2ccc(Cl)cc12` [Compound 157, 1-(5-chloro-1H-indol-3-yl)-3-(5-chloro-6-(4,4-difluorocyclohexyl)pyridin-3-yl)urea] was 0.04 to 0.2 µM; that for `O=C(Nc1cnc(C2CCC(F)(F)CC2)c(Cl)c1)Nc1c[nH]c2ccc(O)cc12` [Compound 191, 1-(5-chloro-6-(4,4-difluorocyclohexyl)pyridin-3-yl)-3-(5-hydroxy-1H-indol-3-yl)urea] was 0.2 to 1 µM.
`COCCO[C@H]1CCN(c2ncc(NC(=O)Nc3c[nH]c4cc(F)c(F)cc34)cc2Cl)C1` [Compound 150, (S)-1-(5-chloro-6-(3-(2-methoxyethoxy)pyrrolidin-1-yl)pyridin-3-yl)-3-(5,6-difluoro-1H-indol-3-yl)urea] displayed an EC50 of 0.2 to 1 µM.
`O=C(Nc1cnc(C2CCC(F)(F)CC2)c(Cl)c1)Nc1c[nH]c2cc(F)ccc12` [Compound 141, 1-(5-chloro-6-(4,4-difluorocyclohexyl)pyridin-3-yl)-3-(6-fluoro-1H-indol-3-yl)urea] returned an EC50 of 0.2 to 1 µM.
